Experimental data: PubChem BioAssay (NCI)
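A five-concentration, 48-hour dose response in 96-well plates underlies each endpoint, interpolated linearly between surrounding concentrations. Here, GI50 denotes the concentration required for 50% inhibition of growth. TGI marks complete inhibition of growth.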

Columns and labels:
Assay in all cases: inhibition of tumour cell growth, NCI panel, 48 h
K-562 leukemia = test system: K-562 leukemia
SN12C renal = test system: SN12C renal
MDA-MB-231 breast = test system: MDA-MB-231 breast
HS 578T breast = test system: HS 578T breast
UACC-62 melanoma = test system: UACC-62 melanoma
HOP-62 NSCLC = test system: HOP-62 NSCLC
ACHN renal = test system: ACHN renal
SF-295 CNS = test system: SF-295 CNS
BT-549 breast = test system: BT-549 breast
NCI-H460 lung = test system: NCI-H460 lung
UO-31 renal = test system: UO-31 renal
OVCAR-3 ovarian = test system: OVCAR-3 ovarian
RPMI-8226 leukemia = test system: RPMI-8226 leukemia
HCT-15 colon = test system: HCT-15 colon
SR leukemia = test system: SR leukemia
A498 renal = test system: A498 renal
SNB-75 CNS = test system: SNB-75 CNS
HCT-116 colon = test system: HCT-116 colon
SK-MEL-28 melanoma = test system: SK-MEL-28 melanoma
OVCAR-4 ovarian = test system: OVCAR-4 ovarian
SK-MEL-2 melanoma = test system: SK-MEL-2 melanoma
IGROV1 ovarian = test system: IGROV1 ovarian
SNB-19 CNS = test system: SNB-19 CNS
DU-145 prostate = test system: DU-145 prostate
CCRF-CEM leukemia = test system: CCRF-CEM leukemia
SW-620 colon = test system: SW-620 colon
CAKI-1 renal = test system: CAKI-1 renal
HT29 colon = test system: HT29 colon
OVCAR-8 ovarian = test system: OVCAR-8 ovarian
SK-MEL-5 melanoma = test system: SK-MEL-5 melanoma
SF-268 CNS = test system: SF-268 CNS
LOX IMVI melanoma = test system: LOX IMVI melanoma
MCF7 breast = test system: MCF7 breast
UACC-257 melanoma = test system: UACC-257 melanoma
786-0 renal = test system: 786-0 renal
KM12 colon = test system: KM12 colon
TK-10 renal = test system: TK-10 renal
MALME-3M melanoma = test system: MALME-3M melanoma
RXF 393 renal = test system: RXF 393 renal
MOLT-4 leukemia = test system: MOLT-4 leukemia
PC-3 prostate = test system: PC-3 prostate
NCI/ADR-RES ovarian = test system: NCI/ADR-RES ovarian
NCI-H226 lung = test system: NCI-H226 lung
MDA-MB-435 = test system: MDA-MB-435
OVCAR-5 ovarian = test system: OVCAR-5 ovarian
SK-OV-3 ovarian = test system: SK-OV-3 ovarian
U251 CNS = test system: U251 CNS
NCI-H23 lung = test system: NCI-H23 lung
HOP-92 NSCLC = test system: HOP-92 NSCLC
HCC-2998 colon = test system: HCC-2998 colon
T-47D breast = test system: T-47D breast
SF-539 CNS = test system: SF-539 CNS
A549 NSCLC = test system: A549 NSCLC
HL-60(TB) leukemia = test system: HL-60(TB) leukemia
COLO 205 colon = test system: COLO 205 colon
M14 melanoma = test system: M14 melanoma
NCI-H522 lung = test system: NCI-H522 lung

CS(=O)(=O)N1CCC(n2c(=O)c(Oc3ccc(F)cc3F)cc3cnc(NC4CCOCC4)nc32)CC1
GI50 (K-562 leukemia): > 25 µM
TGI (K-562 leukemia): > 25 µM
GI50 (SN12C renal): > 25 µM
TGI (SN12C renal): > 25 µM
GI50 (MDA-MB-231 breast): > 25 µM
TGI (MDA-MB-231 breast): > 25 µM
GI50 (HS 578T breast): > 11.6 µM
TGI (HS 578T breast): > 25 µM
GI50 (UACC-62 melanoma): > 25 µM
TGI (UACC-62 melanoma): > 25 µM
GI50 (HOP-62 NSCLC): > 25 µM
TGI (HOP-62 NSCLC): > 25 µM
GI50 (ACHN renal): > 25 µM
TGI (ACHN renal): > 25 µM
GI50 (SF-295 CNS): > 25 µM
TGI (SF-295 CNS): > 25 µM
GI50 (BT-549 breast): 24.5 µM
TGI (BT-549 breast): > 25 µM
GI50 (NCI-H460 lung): > 25 µM
TGI (NCI-H460 lung): > 25 µM
GI50 (UO-31 renal): 16.9 µM
TGI (UO-31 renal): > 25 µM
GI50 (OVCAR-3 ovarian): > 25 µM
TGI (OVCAR-3 ovarian): > 25 µM
GI50 (RPMI-8226 leukemia): > 17.5 µM
TGI (RPMI-8226 leukemia): > 25 µM
GI50 (HCT-15 colon): > 25 µM
TGI (HCT-15 colon): > 25 µM
GI50 (SR leukemia): > 25 µM
TGI (SR leukemia): > 25 µM
GI50 (A498 renal): 3.18 µM
TGI (A498 renal): > 25 µM
GI50 (SNB-75 CNS): > 25 µM
TGI (SNB-75 CNS): > 25 µM
GI50 (HCT-116 colon): > 25 µM
TGI (HCT-116 colon): > 25 µM
GI50 (SK-MEL-28 melanoma): > 25 µM
TGI (SK-MEL-28 melanoma): > 25 µM
GI50 (OVCAR-4 ovarian): > 25 µM
TGI (OVCAR-4 ovarian): > 25 µM
GI50 (SK-MEL-2 melanoma): > 25 µM
TGI (SK-MEL-2 melanoma): > 25 µM
GI50 (IGROV1 ovarian): > 25 µM
TGI (IGROV1 ovarian): > 25 µM
GI50 (SNB-19 CNS): > 25 µM
TGI (SNB-19 CNS): > 25 µM
GI50 (DU-145 prostate): > 25 µM
TGI (DU-145 prostate): > 25 µM
GI50 (CCRF-CEM leukemia): > 25 µM
TGI (CCRF-CEM leukemia): > 25 µM
GI50 (SW-620 colon): > 25 µM
TGI (SW-620 colon): > 25 µM
GI50 (CAKI-1 renal): > 25 µM
TGI (CAKI-1 renal): > 25 µM
GI50 (HT29 colon): > 25 µM
TGI (HT29 colon): > 25 µM
GI50 (OVCAR-8 ovarian): > 25 µM
TGI (OVCAR-8 ovarian): > 25 µM
GI50 (SK-MEL-5 melanoma): > 25 µM
TGI (SK-MEL-5 melanoma): > 25 µM
GI50 (SF-268 CNS): > 25 µM
TGI (SF-268 CNS): > 25 µM
GI50 (LOX IMVI melanoma): > 25 µM
TGI (LOX IMVI melanoma): > 25 µM
GI50 (MCF7 breast): > 25 µM
TGI (MCF7 breast): > 25 µM
GI50 (UACC-257 melanoma): > 25 µM
TGI (UACC-257 melanoma): > 25 µM
GI50 (786-0 renal): > 25 µM
TGI (786-0 renal): > 25 µM
GI50 (KM12 colon): > 25 µM
TGI (KM12 colon): > 25 µM
GI50 (TK-10 renal): 19.9 µM
TGI (TK-10 renal): > 25 µM
GI50 (MALME-3M melanoma): > 25 µM
TGI (MALME-3M melanoma): > 25 µM
GI50 (RXF 393 renal): 6.88 µM
TGI (RXF 393 renal): > 25 µM
GI50 (MOLT-4 leukemia): > 25 µM
TGI (MOLT-4 leukemia): > 25 µM
GI50 (PC-3 prostate): > 25 µM
TGI (PC-3 prostate): > 25 µM
GI50 (NCI/ADR-RES ovarian): > 25 µM
TGI (NCI/ADR-RES ovarian): > 25 µM
GI50 (NCI-H226 lung): > 22.5 µM
TGI (NCI-H226 lung): > 25 µM
GI50 (MDA-MB-435): > 25 µM
TGI (MDA-MB-435): > 25 µM
GI50 (OVCAR-5 ovarian): > 25 µM
TGI (OVCAR-5 ovarian): > 25 µM
GI50 (SK-OV-3 ovarian): > 17.5 µM
TGI (SK-OV-3 ovarian): > 25 µM
GI50 (U251 CNS): > 25 µM
TGI (U251 CNS): > 25 µM
GI50 (NCI-H23 lung): > 25 µM
TGI (NCI-H23 lung): > 25 µM
GI50 (HOP-92 NSCLC): > 25 µM
TGI (HOP-92 NSCLC): > 25 µM
GI50 (HCC-2998 colon): > 25 µM
TGI (HCC-2998 colon): > 25 µM
GI50 (T-47D breast): > 20.8 µM
TGI (T-47D breast): > 25 µM
GI50 (SF-539 CNS): > 25 µM
TGI (SF-539 CNS): > 25 µM
GI50 (A549 NSCLC): > 25 µM
TGI (A549 NSCLC): > 25 µM
GI50 (HL-60(TB) leukemia): > 25 µM
TGI (HL-60(TB) leukemia): > 25 µM
GI50 (COLO 205 colon): > 25 µM
TGI (COLO 205 colon): > 25 µM
GI50 (M14 melanoma): > 25 µM
TGI (M14 melanoma): > 25 µM
GI50 (NCI-H522 lung): > 25 µM
TGI (NCI-H522 lung): > 25 µM
